# Patent publication US20060116390A1, “Hepatitis c virus inhibitors” (priority 2003, published 2006)
# pIC50: −log10 of the molar value. Like-named read-outs stand apart in the source and are kept apart here.
# Tested on: HCV proteins in Rep5.1 cells (replicon cell line)
# Test: Inhibitory activity of HCV: cell-based ELISA in replicon cell line Rep5.1 (decrease of HCV proteins)
# Design: species or system hepatitis C virus
# Conditions: Rep5.1 cells, 72 hours with drug
# How it was run: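 Rep5.1 replicon cells (5000/well, DMEM-10 with 500 μg/ml G418) were given serially diluted drug 4 h after seeding. After 72 h, cells were fixed in methanol/acetone and HCV proteins detected by cell-based ELISA using replicon-specific patient plasma antibodies. IC50 is the concentration giving 50% protein decrease versus the no-drug control.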
# [1] = Hepatitis C virus, 72 h, concentration at which 50% of HCV proteins was decreased, Table 2, read-out: IC50
# [2] = Hepatitis C virus, 72 h, decrease of HCV proteins measured by HCV antibody, Table 1, read-out: Level (IC50 values classified)
SMILES,pIC50 [1],pIC50 [2],"pIC50 (concentration at which 50% of HCV proteins was decreased, Table 2, read-out: IC50)"
"CC1=C(C(=O)OCc2noc(C)n2)CNC(=S)N1 [30′, 6-methyl-2-thioxo-1,2,3,4-tetrahydro-pyrimidine-5-carboxylic acid 5-methyl-[1,2,4]oxadiazol-3-ylmethyl ester]",< 4.00,< 4.70,
"CC1=C(C(=O)OCCc2c(F)cc(F)cc2F)C(CO)NC(=S)N1 (stereo not shown) [53″, 4-hydroxymethyl-6-methyl-2-thioxo-1,2,3,4-tetrahydro-pyrimidine-5-carboxylic acid 2-(2,4,6-trifluoro-phenyl)-ethyl ester]",5.15,5.00 to 6.00,
"CC1=C(C(=O)OCc2ccc(Cl)cc2)CNC(=S)N1 [Compound 43, 6-methyl-2-thioxo-1,2,3,4-tetrahydro-pyrimidine-5-carboxylic acid 4-chloro-benzyl ester]",> 6.40,> 6.00,
"CSc1ccc(COC(=O)C2=C(C)NC(=S)NC2)s1 [Compound 217, 6-methyl-2-thioxo-1,2,3,4-tetrahydro-pyrimidine-5-carboxylic acid 5-methylsulfanyl-thiophen-2-ylmethyl ester]",5.15,5.00 to 6.00,
"CC1=C(C(=O)OCCc2ccc(F)c(F)c2)C(CO)NC(=S)N1 (stereo not shown) [68″, 4-hydroxymethyl-6-methyl-2-thioxo-1,2,3,4-tetrahydro-pyrimidine-5-carboxylic acid 2-(3,4-difluoro-phenyl)-ethyl ester]",5.57,5.00 to 6.00,
"O=C(OCc1ccccc1)C1=C(C(=O)OCc2ccccc2)NC(=S)NC1 [Compound 87, 2-thioxo-1,2,3,6-tetrahydro-pyrimidine-4,5-dicarboxylic acid dibenzyl ester]",4.25,< 4.70,
"CC1=C(C(=O)OCC#Cc2ccccc2)C(CO)NC(=S)N1 (stereo not shown) [40″, 4-hydroxymethyl-6-methyl-2-thioxo-1,2,3,4-tetrahydro-pyrimidine-5-carboxylic acid 3-phenyl-prop-2-inyl ester]",,,< 4.00
"CC1=C(C(=O)OCCc2ccsc2Br)C(CO)NC(=S)N1 (stereo not shown) [10″, 4-hydroxymethyl-6-methyl-2-thioxo-1,2,3,4-tetrahydro-pyrimidine-5-carboxylic acid 2-(2-bromo-thiophen-3-yl)-ethyl ester]",5.15,5.00 to 6.00,
"CC1=C(C(=O)OCCCc2cccs2)C(CF)NC(=S)N1 (stereo not shown) [10′, 4-fluoromethyl-6-methyl-2-thioxo-1,2,3,4-tetrahydro-pyrimidine-5-carboxylic acid 3-thiophen-2-yl-propyl ester]",5.92,5.00 to 6.00,
"CC1=C(C(=O)OCc2ccsc2)CNC(=S)N1 [Compound 139, 6-methyl-2-thioxo-1,2,3,4-tetrahydro-pyrimidine-5-carboxylic acid thiophen-3-ylmethyl ester]",5.15,5.00 to 6.00,
"CC1=C(C(=O)OCc2ccncc2)CNC(=S)N1 [Compound 155, 6-methyl-2-thioxo-1,2,3,4-tetrahydro-pyrimidine-5-carboxylic acid pyridin-4-ylmethyl ester]",< 4.00,< 4.70,
"CC1=C(C(=O)OCCCCSc2nc3ccccc3s2)C(CF)NC(=S)N1 (stereo not shown) [55′, 4-fluoromethyl-6-methyl-2-thioxo-1,2,3,4-tetrahydro-pyrimidine-5-carboxylic acid 4-(benzothiazol-2-ylsulfanyl)-butyl ester]",5.80,5.00 to 6.00,
"CCCN(c1ccc(CCOC(=O)C2=C(C)NC(=S)NC2CO)cc1[N+](=O)[O-])C1CC1 (stereo not shown) [95″, 4-Hydroxymethyl-6-methyl-2-thioxo-1,2,3,4-tetrahydro-pyrimidine-5-carboxylic acid 2-[4-(cyclopropyl-propyl-amino)-3-nitro-phenyl]-ethyl ester]",6.22,> 6.00,
"CC1=C(C(=O)OCc2cc(C)cc(C)c2)C(CF)NC(=S)N1 (stereo not shown) [35′, 4-fluoromethyl-6-methyl-2-thioxo-1,2,3,4-tetrahydro-pyrimidine-5-carboxylic acid 3,5-dimethyl-benzyl ester]",6.10,> 6.00,
"CC(=O)OCC1NC(=S)NC(C)=C1C(=O)OCCCc1cccs1 (stereo not shown) [23″, 4-acetoxymethyl-6-methyl-2-thioxo-1,2,3,4-tetrahydro-pyrimidine-5-carboxylic acid 3-thiophen-2-yl-propyl ester]",5.05,5.00 to 6.00,
"CC1=C(C(=O)OCc2ccc([N+](=O)[O-])c(C)c2)CNC(=S)N1 [Compound 135, 6-methyl-2-thioxo-1,2,3,4-tetrahydro-pyrimidine-5-carboxylic acid 3-methyl-4-nitro-benzyl ester]",6.05,> 6.00,
"COc1cscc1CCOC(=O)C1=C(C)NC(=S)NC1 [40′, 6-methyl-2-thioxo-1,2,3,4-tetrahydro-pyrimidine-5-carboxylic acid 2-(4-methoxy-thiophen-3-yl)-ethyl ester]",6.22,> 6.00,

SMILES,pIC50 [1],pIC50 [2],"pIC50 (concentration at which 50% of HCV proteins was decreased, Table 2, read-out: IC50)"
"CC1=C(C(=O)OCc2ccc(C(F)(F)F)cc2)CNC(=S)N1 [Compound 114, 6-methyl-2-thioxo-1,2,3,4-tetrahydro-pyrimidine-5-carboxylic acid 4-trifluoromethyl-benzyl ester]",> 6.40,> 6.00,
"CC1=C(C(=O)OCCc2ccc(Cl)cc2)CNC(=S)N1 [Compound 94, 6-methyl-2-thioxo-1,2,3,4-tetrahydro-pyrimidine-5-carboxylic acid 2-(4-chloro-phenyl)-ethyl ester]",> 6.40,> 6.00,
"CC1=C(C(=O)OCCc2ccoc2)CNC(=S)N1 [Compound 254, 6-methyl-2-thioxo-1,2,3,4-tetrahydro-pyrimidine-5-carboxylic acid 2-furan-3-yl-ethyl ester]",5.52,5.00 to 6.00,
"CC1=C(C(=O)OCCCn2c(=O)sc3ccccc32)C(CF)NC(=S)N1 (stereo not shown) [48′, 4-fluoromethyl-6-methyl-2-thioxo-1,2,3,4-tetrahydro-pyrimidine-5-carboxylic acid 3-(2-oxo-benzothiazol-3-yl)-propyl ester]",4.68,< 4.70,
"CC1=C(C(=O)OCCCc2ccccc2)CNC(=S)N1 [Compound 14, 6-methyl-2-thioxo-1,2,3,4-tetrahydro-pyrimidine-5-carboxylic acid 3-phenyl-propyl ester]",6.70,> 6.00,
"CC1=C(C(=O)OCc2cccc3ccccc23)CNC(=S)N1 [Compound 10, 6-methyl-2-thioxo-1,2,3,4-tetrahydro-pyrimidine-5-carboxylic acid naphthalen-1-ylmethyl ester]",6.00,> 6.00,
"CC1=C(C(=O)OCCCCCCCCc2ccccc2)CNC(=S)N1 [Compound 33, 6-methyl-2-thioxo-1,2,3,4-tetrahydro-pyrimidine-5-carboxylic acid 8-phenyl-octyl ester]",> 6.30,> 6.00,
"CCOc1ccc(CCOC(=O)C2=C(C)NC(=S)NC2CO)cc1 (stereo not shown) [60″, 4-hydroxymethyl-6-methyl-2-thioxo-1,2,3,4-tetrahydro-pyrimidine-5-carboxylic acid 2-(4-ethoxy-phenyl)-ethyl ester]",5.60,5.00 to 6.00,
"C=C(Cl)COC(=O)C1=C(C)NC(=S)NC1 [Compound 98, 6-methyl-2-thioxo-1,2,3,4-tetrahydro-pyrimidine-5-carboxylic acid 2-chloro-allyl ester]",5.15,5.00 to 6.00,
"COc1ccc(COC(=O)C2=C(C)NC(=S)NC2)c(C)c1C [Compound 138, 6-methyl-2-thioxo-1,2,3,4-tetrahydro-pyrimidine-5-carboxylic acid 4-methoxy-2,3-dimethyl-benzyl ester]",4.70,4.70 to 5.00,
"CCOc1ccccc1COC(=O)C1=C(C)NC(=S)NC1CF (stereo not shown) [Compound 263, 4-fluoromethyl-6-methyl-2-thioxo-1,2,3,4-tetrahydro-pyrimidine-5-carboxylic acid 2-ethoxy-benzyl ester]",5.77,> 6.00,
"C=CCN(C)c1ccc(CCOC(=O)C2=C(C)NC(=S)NC2CO)cc1[N+](=O)[O-] (stereo not shown) [96″, 4-Hydroxymethyl-6-methyl-2-thioxo-1,2,3,4-tetrahydro-pyrimidine-5-carboxylic acid 2-[4-(allyl-methyl-amino)-3-nitro-phenyl]-ethyl ester]",6.05,> 6.00,
"CCN(CC)c1ccc(CCOC(=O)C2=C(C)NC(=S)NC2CO)cc1[N+](=O)[O-] (stereo not shown) [91″, 4-Hydroxymethyl-6-methyl-2-thioxo-1,2,3,4-tetrahydro-pyrimidine-5-carboxylic acid 2-(4-diethylamino-3-nitro-phenyl)-ethyl ester]",6.15,> 6.00,
"CC1=C(C(=O)OCc2ccc3ncsc3c2)CNC(=S)N1 [Compound 248, 6-methyl-2-thioxo-1,2,3,4-tetrahydro-pyrimidine-5-carboxylic acid benzothiazol-6-ylmethyl ester]",5.30,5.00 to 6.00,
"CC1=C(C(=O)OCCc2ccc(Cl)cc2)C(CO)NC(=S)N1 (stereo not shown) [35″, 4-hydroxymethyl-6-methyl-2-thioxo-1,2,3,4-tetrahydro-pyrimidine-5-carboxylic acid 2-(4-chloro-phenyl)-ethyl ester]",5.80,5.00 to 6.00,
"CC1=C(C(=O)OCc2scc(C)c2Cl)C(CF)NC(=S)N1 (stereo not shown) [15′, 4-fluoromethyl-6-methyl-2-thioxo-1,2,3,4-tetrahydro-pyrimidine-5-carboxylic acid 3-chloro-4-methyl-thiophen-2-ylmethyl ester]",6.00,> 6.00,
"CC1=C(C(=O)OCC2CCOC2)CNC(=S)N1 (stereo not shown) [Compound 162, 6-methyl-2-thioxo-1,2,3,4-tetrahydro-pyrimidine-5-carboxylic acid tetrahydrofuran-3-ylmethyl ester]",< 4.00,< 4.70,
